{
  "source": "patent US12496332B2",
  "about": "(priority 2019, dated 2025)",
  "key": {"[1]": {"test_system": "A549 cells infected with influenza A virus", "assay_type": "cell-based, human", "settings": "for decrease of the SOD1 protein during viral infection: A549 cells treated in vitro with inhibitor of autophagy or endoplasmic reticulum stress"}, "influenza virus [2]": {"test_system": "influenza virus", "assay_type": "in vivo, mice"}, "influenza virus [3]": {"test_system": "influenza virus", "parameters": "species or system mice (C57BL/6N or BALB/c)", "settings": "mouse, in vivo"}},
  "data": [
    {"molecule": "CCN(CC)CCCC(C)Nc1ccnc2cc(Cl)ccc12", "note": "(stereo not drawn) [chloroquine]", "values": [
      {"measurement": "amount of SOD1 protein", "setting": "[1]", "value": "more distinct than that of 3-MA"},
      {"measurement": "decrease of the SOD1 protein during viral infection", "setting": "[1]", "value": "reduced significantly"}
    ]},
    {"molecule": "CC(=O)N[C@@H](CS)C(=O)O", "note": "[NAC, N-acetylcysteine]", "values": [
      {"measurement": "body weight (survivability)", "setting": "influenza virus [2]; […], SOD1 50 units/mouse, NAC 1 mg/mouse, 4-PBA 2.5 mg/mouse, catalase 50 units/mouse", "value": "significant difference in body weight"}
    ]},
    {"molecule": "O=C(O)CCCc1ccccc1", "note": "[4-PBA, 4-phenylbutyrate]", "values": [
      {"measurement": "decrease of the SOD1 protein during viral infection", "setting": "[1]", "value": "reduced significantly"},
      {"measurement": "production of ROS compared to non-administration group", "setting": "influenza virus [3]", "value": "decreased significantly"}
    ]},
    {"molecule": "Cn1cnc(N)c2ncnc1-2", "note": "[3-MA, 3-methyladenine]", "values": [
      {"measurement": "LC3 conversion", "setting": "[1]", "value": "decreased"},
      {"measurement": "amount of SOD1 protein", "setting": "[1]", "value": "increase"},
      {"measurement": "expression of viral protein PB1", "setting": "[1]", "value": "decreased expression"},
      {"measurement": "decrease of the SOD1 protein during viral infection", "setting": "[1]", "value": "reduced significantly"}
    ]},
    {"molecule": "SOD1: superoxide dismutase 1, ROS scavenger; human SOD1 gene expressed in bacteria from pET-SOD1", "values": [
      {"measurement": "amount of ROS in the bronchoalveolar lavage fluid", "setting": "influenza virus [3]", "value": "decreased"},
      {"measurement": "amount of SOD1 in lung tissue", "setting": "influenza virus [3]", "value": "recovered to a level close to that before the infection"},
      {"measurement": "body weight decrease", "setting": "influenza virus [2]; mouse, in vivo", "value": "slightly inhibited"}
    ]}
  ]
}
